Assay results published in patent US9169182B2, “Chrysophaentin analogs that inhibit FtsZ protein” (priority 2011, dated 2015).
In brackets after ≈: the same amount, converted by molar mass.

Tests used:
[1] = test system: multidrug-resistant S. aureus (MDRSA, ATCC BAA-44); experiment: Microbroth dilution assay; format: cell-based; conditions: Staphylococcus aureus, ATCCBAA44, read-out: MIC50 values in μM MDRSA
Procedure: (§1) Compounds 1-8 were tested for antimicrobial activity against Staphylococcus aureus (SA, ATCC 25923), methicillin-resistant S. aureus (MRSA, ATCC BAA-41), multidrug-resistant S. aureus (MDRSA, ATCC BAA-44), Enterococcus faecium (EF, ATCC 49032), vancomycin-resistant E. Faecium (VRE, ATCC 700221), and Bacillus subtilis (ATCC 49343) using a modified disk diffusion assay and microbroth liquid dilution assays. For disk diffusion assays, agar plates seeded with suspensions of bacteria were prepared by adding 500 μL of a 24 h culture of bacteria to 100 mL of autoclaved Mueller Hinton II agar and cooled to 55° C. Seeded liquid agar (10 mL) was transferred immediately to square Petri dishes and allowed to cool for 1 h. Control drugs used for each microorganism included kanamycin (50 μg) for S. aureus, and nitrofurantoin (25 μg) for MRSA. Following incubation at 37° C. for 18 h, zones of inhibition were measured. MICso values for compounds 1 and 4-8 were determined using a microbroth dilution assay outlined in the Clinical and Laboratory Standards Institute methods for susceptibility tests for bacteria that grow aerobically. Briefly, single bacterial colonies were used to inoculate 4 mL of Trypticase Soy broth (BD) for overnight growth and inoculum for each were diluted to 5×10^5 CFU/mL using the 0.5 McFarland standard. In a 96 well plate (Costar, round bottom), control antibiotics (oxacillin for SA and MRSA, vancomycin for EF and VRE, chloramphenicol for B. subtilis) or natural product inhibitors were added to Mueller Hinton II broth (for S. aureus, MRSA, and B. subtilis) or 10% brain heart infusion broth (for E. faecium and VRE) in the first column of the well plates, and serially diluted across the plate, reserving wells for a positive growth control (no treatment). 10 μL of diluted bacteria were added to all wells with the exception of those kept for broth blanks (MHII or brain heart infusion broth only). Plates were incubated at 37° C. overnight and read at absorbance 600 nm on a Molecular Devices plate reader. Growth curves were plotted and ICso values obtained using Kalidagraph software.
(§2) Compounds J23 and J24 were tested for antimicrobial activity against Bacillus subtilis (BS, ATCC 49343), Staphylococcus aureus (SA, ATCC 25923), methicillin-resistant S. aureus (MRSA, ATCC BAA-41), multidrug-resistant S. aureus (MDRSA, ATCC BAA-44), Escherichia coli (EC, ATCC 8739), envelope-deficient E. coli (envA-EC; permeable (envA-) BL21(DE3)pLysS E. coli [constructed using standard P1 transduction methodology, utilizing a Tn10transposon linked to the envA1 gene]; Wang et al., J. Biol. Chem. 2003, 278(45):44424-44428), a clinical isolate of S. aureus (UAMS-1; clinical osteomyelitis isolate; Olson et al., PLoS Pathogens 2011, 7(2):e1001287, www.plospathogens.org), and a clinical isolate of MRSA (USA300; the strain USA300-0114 is the predominant cause of U.S. community-associated methicillin resistant S. aureus infections). MIC50 values were determined using a microbroth dilution assay as described in Example 2. E. coli was grown in Mueller Hinton II broth.

[2] = test system: Staphylococcus aureus (SA, ATCC 25923); experiment: Microbroth dilution assay; format: cell-based; conditions: ATCC25923, microbroth dilution
Procedure: as §1, §2

[3] = test system: methicillin-resistant S. aureus (MRSA, ATCC BAA-41); experiment: Microbroth dilution assay; format: cell-based; conditions: Staphylococcus aureus
Procedure: as §1, §2

[4] = test system: clinical isolate of S. aureus (UAMS-1); experiment: Microbroth dilution assay; format: cell-based; conditions: Staphylococcus aureus
Procedure: as §1, §2

[5] = test system: Bacillus subtilis (ATCC 49343); experiment: Microbroth dilution assay; format: cell-based; conditions: ATCC49343, read-out: MIC50 values in μM BS
Procedure: as §1, §2

[6] = test system: Escherichia coli (EC, ATCC 8739); experiment: Microbroth dilution assay; format: cell-based; conditions: ATCC8739
Procedure: as §1, §2

[7] = test system: envelope-deficient E. coli (envA-EC); experiment: Microbroth dilution assay; format: cell-based; conditions: Escherichia coli, read-out: MIC50 values in μM envA-EC
Procedure: as §1, §2

[8] = test system: clinical isolate of MRSA (USA300); experiment: Microbroth dilution assay; format: cell-based; conditions: Staphylococcus aureus
Procedure: as §1, §2

Sa-FtsZ = Sa-FtsZ (Staphylococcus aureus, UniProt P0A031); format: biochemical; conditions: GTPase assay; read-out: FtsZ in vitro IC50 μM Sa-FtsZ
Procedure: (§3) Solutions were incubated at room temperature for 5 min, followed by addition of 0.25 mM GTP. At the end of a 20-min incubation period, enzyme activity was quenched by addition of 50 μL Malachite Green solution and the wells read at A^625 on an absorbance plate reader.

recombinant E. coli FtsZ = recombinant E. coli FtsZ (Escherichia coli (strain K12), UniProt P0A9A6); experiment: FtsZ GTPase assay (malachite green); conditions: read-out: FtsZ in vitro IC50 μM Ec-FtsZ
Sequence of recombinant E. coli FtsZ (P0A9A6 whole entry, looked up): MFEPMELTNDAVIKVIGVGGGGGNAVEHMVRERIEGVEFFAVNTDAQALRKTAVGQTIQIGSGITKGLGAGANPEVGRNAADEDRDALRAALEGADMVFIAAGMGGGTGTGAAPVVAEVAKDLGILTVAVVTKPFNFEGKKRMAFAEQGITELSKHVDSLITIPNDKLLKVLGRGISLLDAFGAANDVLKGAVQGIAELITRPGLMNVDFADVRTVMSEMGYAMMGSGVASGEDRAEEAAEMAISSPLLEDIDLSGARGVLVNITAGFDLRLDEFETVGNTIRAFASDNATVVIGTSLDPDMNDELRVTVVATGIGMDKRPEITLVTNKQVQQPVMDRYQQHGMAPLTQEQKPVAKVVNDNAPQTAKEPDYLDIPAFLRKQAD
Procedure: as §3

Compound | MIC50 [1] | MIC50 [2] | MIC50 [3] | MIC50 [4] | MIC50 [5] | MIC50 [6] | MIC50 [7] | MIC50 [8] | IC50 (Sa-FtsZ) | IC50 (recombinant E. coli FtsZ)
COc1cc(C/C=C(/Cl)Cc2cc(O)cc(O)c2)c(OC)cc1Cl [Compound J23, (E)-5-(2-chloro-4-(4-chloro-2,5-dimethoxyphenyl)but-2-enyl)benzene-1,3-diol] | 12 µM (≈ 4.43 µg/mL) | 12 µM (≈ 4.43 µg/mL) | 12 µM (≈ 4.43 µg/mL) | 7.4 µM (≈ 2.73 µg/mL) | 19 µM (≈ 7.02 µg/mL) | > 270 µM | 120 µM (≈ 44.3 µg/mL) | 6 µM (≈ 2.22 µg/mL) | 44 ± 12 µM | 36 ± 7 µM
Oc1cc(O)cc(C/C(Cl)=C\Cc2cc(O)c(Cl)cc2O)c1 [Compound J24, (E)-5-(2-chloro-4-(4-chloro-2,5-dihydroxyphenyl)but-2-enyl)-benzene-1,3-diol] | 26 µM (≈ 8.87 µg/mL) | 18 µM (≈ 6.14 µg/mL) | 22 µM (≈ 7.51 µg/mL) | – | 11 µM (≈ 3.75 µg/mL) | > 290 µM | 72 µM (≈ 24.6 µg/mL) | – | 88 ± 11 µM | 160 ± 30 µM
